This passage reports IC50 results from US7074789B2, “Kinase inhibitors” (Amgen Inc., priority 1999, dated 2006).

Format in all cases: biochemical
In experiment [1] the target is T1, c-Met (Homo sapiens, UniProt P08581).
T1 construct: Kinases are expressed as either kinase domains or full length constructs; made in house
As to the kind of experiment: Kinase inhibition assay (33P transfer), c-Met. To be noted: Table 2, kinase inhibition class; read-out: Met-1. The gist of the method: (§1)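 Each enzyme, purified to near homogeneity by affinity chromatography, was incubated with ATP carrying 33P and a substrate polymer fixed to the plate. Unbound label was removed with dilute phosphoric acid (0.5%) before adding scintillant and counting. Potency is given as the compound level cutting label uptake by 50%.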

For experiment [2], the target named is T2, Zap-70 (Homo sapiens, UniProt P43403).
T2 construct: Kinases are expressed as either kinase domains or full length constructs; made in house
T2 sequence (P43403 1-619): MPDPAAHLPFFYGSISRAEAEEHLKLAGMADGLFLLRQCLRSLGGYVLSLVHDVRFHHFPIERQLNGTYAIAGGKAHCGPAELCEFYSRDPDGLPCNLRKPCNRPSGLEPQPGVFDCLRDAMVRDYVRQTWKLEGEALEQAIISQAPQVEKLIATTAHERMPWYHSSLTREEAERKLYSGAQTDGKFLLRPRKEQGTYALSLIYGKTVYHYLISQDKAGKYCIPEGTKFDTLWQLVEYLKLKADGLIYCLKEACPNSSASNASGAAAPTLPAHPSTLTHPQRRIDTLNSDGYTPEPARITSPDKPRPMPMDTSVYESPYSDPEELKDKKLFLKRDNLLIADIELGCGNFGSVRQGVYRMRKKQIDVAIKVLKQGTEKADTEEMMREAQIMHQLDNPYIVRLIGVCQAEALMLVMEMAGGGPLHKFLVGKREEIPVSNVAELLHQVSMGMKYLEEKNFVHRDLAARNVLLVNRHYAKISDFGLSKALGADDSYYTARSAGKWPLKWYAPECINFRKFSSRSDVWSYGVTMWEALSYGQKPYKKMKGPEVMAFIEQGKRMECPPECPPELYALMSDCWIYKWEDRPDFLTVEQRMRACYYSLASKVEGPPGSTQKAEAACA
As to the kind of experiment: Kinase inhibition assay (33P transfer), Zap-70. The settings on record: read-out: Zap-1. The gist of the method: (§2)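 Measured by scintillation: radiolabelled phosphate added by tagged recombinant kinases to poly(Glu,Tyr) 4:1 or poly(Arg,Ser) 3:1 attached to microtiter wells, counted once free label was washed away with 0.5% phosphoric acid.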

The target of experiment [3] is T3, Itk (Homo sapiens, UniProt Q08881).
T3 construct: Kinases are expressed as either kinase domains or full length constructs; made in house
T3 sequence (Q08881 1-620): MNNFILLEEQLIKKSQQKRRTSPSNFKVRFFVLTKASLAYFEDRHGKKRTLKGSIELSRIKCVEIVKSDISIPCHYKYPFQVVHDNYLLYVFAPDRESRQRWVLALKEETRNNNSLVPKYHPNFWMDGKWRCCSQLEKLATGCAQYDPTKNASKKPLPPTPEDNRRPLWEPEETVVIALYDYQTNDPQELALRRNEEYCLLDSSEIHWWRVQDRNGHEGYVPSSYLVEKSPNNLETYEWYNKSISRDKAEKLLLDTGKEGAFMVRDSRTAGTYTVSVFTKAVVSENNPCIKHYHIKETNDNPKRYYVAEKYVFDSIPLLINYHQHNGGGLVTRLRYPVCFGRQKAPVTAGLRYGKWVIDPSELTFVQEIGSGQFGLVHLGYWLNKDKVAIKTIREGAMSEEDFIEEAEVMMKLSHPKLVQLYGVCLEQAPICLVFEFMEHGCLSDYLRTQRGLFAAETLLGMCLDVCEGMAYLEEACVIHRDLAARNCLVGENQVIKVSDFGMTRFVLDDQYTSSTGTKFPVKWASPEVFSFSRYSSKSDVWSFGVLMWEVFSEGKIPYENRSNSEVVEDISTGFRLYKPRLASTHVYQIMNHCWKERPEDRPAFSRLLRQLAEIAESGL
As to the kind of experiment: Kinase inhibition assay (33P transfer), Itk. To be noted: read-out: Itk-1. The gist of the method: as §1

Experiment [4] deals with T4, AKT (Homo sapiens, UniProt Q9Y243).
T4 construct: Kinases are expressed as either kinase domains or full length constructs; made in house
As to the kind of experiment: Kinase inhibition assay (33P transfer), AKT. To be noted: Table 2, kinase inhibition class; read-out: AKT3-1. The gist of the method: as §2

The target of experiment [5] is T5, Lck (Homo sapiens, UniProt P06239).
T5 construct: Kinases are expressed as either kinase domains or full length constructs; made in house
As to the kind of experiment: Kinase inhibition assay (33P transfer), Lck. To be noted: read-out: Lck-1. The gist of the method:
as §2

For experiment [6], the target named is T6, EGFR (Homo sapiens, UniProt P00533).
T6 construct: Kinases are expressed as either kinase domains or full length constructs; made in house
Kind of experiment: Kinase inhibition assay (33P transfer), EGFR. To be noted: Table 2, kinase inhibition class; read-out: EGFR-1. The gist of the method: as §1

For experiment [7], the target named is T7, Kdr (Homo sapiens, UniProt P35968).
T7 construct: Kinases are expressed as either kinase domains or full length constructs; made in house
As to the kind of experiment: Kinase inhibition assay (33P transfer), Kdr. The settings on record: read-out: KDR-1. The gist of the method:
as §2

Experiment [8] concerns the target T8, PDGFRB (Homo sapiens, UniProt P09619).
T8 construct: Kinases are expressed as either kinase domains or full length constructs; made in house
Kind of experiment: Kinase inhibition assay (33P transfer), PDGFRB. The settings on record: read-out: PDGFRB-1.

Experiment [9] deals with T9, IGFR-1 (Homo sapiens, UniProt P08069).
T9 construct: Kinases are expressed as either kinase domains or full length constructs; made in house
Kind of experiment: Kinase inhibition assay, IGFR-1 (Table 2). The settings on record: Table 2, kinase inhibition class.

Experiment [10] addresses T10, ErbB2 (Homo sapiens, UniProt P04626).
T10 construct: Kinases are expressed as either kinase domains or full length constructs; made in house
As to the kind of experiment: Kinase inhibition assay (33P transfer), ErbB2. To be noted: read-out: ErbB2-2. The gist of the method:
as §1

SMILES strings stand for the structures. Some results are limits rather than exact numbers.

T9 sequence (P08069 31-1367): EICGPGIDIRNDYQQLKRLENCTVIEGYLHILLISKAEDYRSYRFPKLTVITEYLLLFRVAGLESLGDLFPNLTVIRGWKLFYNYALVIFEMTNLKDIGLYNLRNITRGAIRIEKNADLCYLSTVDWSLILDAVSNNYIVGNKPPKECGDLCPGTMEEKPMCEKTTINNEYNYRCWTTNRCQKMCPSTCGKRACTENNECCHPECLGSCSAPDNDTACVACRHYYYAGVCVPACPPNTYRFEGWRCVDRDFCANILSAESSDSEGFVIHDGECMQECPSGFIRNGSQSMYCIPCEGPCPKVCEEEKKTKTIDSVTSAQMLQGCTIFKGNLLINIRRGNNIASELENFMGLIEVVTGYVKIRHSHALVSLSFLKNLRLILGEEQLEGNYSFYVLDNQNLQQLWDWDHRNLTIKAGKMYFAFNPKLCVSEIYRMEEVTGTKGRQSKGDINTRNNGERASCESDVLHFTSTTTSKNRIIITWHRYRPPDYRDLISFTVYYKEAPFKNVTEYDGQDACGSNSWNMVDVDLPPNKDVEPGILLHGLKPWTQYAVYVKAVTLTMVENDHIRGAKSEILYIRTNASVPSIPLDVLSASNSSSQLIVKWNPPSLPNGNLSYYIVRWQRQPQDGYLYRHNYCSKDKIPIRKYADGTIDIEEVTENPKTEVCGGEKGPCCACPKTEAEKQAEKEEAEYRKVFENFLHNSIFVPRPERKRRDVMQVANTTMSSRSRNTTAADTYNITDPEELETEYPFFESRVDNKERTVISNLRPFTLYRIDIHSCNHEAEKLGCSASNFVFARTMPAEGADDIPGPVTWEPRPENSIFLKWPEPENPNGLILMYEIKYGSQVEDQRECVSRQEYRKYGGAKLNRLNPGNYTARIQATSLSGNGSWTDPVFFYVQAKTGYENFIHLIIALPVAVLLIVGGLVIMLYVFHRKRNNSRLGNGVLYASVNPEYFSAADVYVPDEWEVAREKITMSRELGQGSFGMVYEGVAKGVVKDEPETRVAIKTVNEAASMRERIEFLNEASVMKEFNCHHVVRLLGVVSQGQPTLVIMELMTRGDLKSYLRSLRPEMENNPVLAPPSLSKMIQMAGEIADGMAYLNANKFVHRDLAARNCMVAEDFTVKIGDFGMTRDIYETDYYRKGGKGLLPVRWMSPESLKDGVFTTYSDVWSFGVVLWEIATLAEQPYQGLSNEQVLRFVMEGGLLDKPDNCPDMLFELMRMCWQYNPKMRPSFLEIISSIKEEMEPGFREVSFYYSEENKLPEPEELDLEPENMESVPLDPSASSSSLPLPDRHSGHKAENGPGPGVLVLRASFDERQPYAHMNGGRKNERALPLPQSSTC
T4 sequence (Q9Y243 whole entry, the tested form may be a part): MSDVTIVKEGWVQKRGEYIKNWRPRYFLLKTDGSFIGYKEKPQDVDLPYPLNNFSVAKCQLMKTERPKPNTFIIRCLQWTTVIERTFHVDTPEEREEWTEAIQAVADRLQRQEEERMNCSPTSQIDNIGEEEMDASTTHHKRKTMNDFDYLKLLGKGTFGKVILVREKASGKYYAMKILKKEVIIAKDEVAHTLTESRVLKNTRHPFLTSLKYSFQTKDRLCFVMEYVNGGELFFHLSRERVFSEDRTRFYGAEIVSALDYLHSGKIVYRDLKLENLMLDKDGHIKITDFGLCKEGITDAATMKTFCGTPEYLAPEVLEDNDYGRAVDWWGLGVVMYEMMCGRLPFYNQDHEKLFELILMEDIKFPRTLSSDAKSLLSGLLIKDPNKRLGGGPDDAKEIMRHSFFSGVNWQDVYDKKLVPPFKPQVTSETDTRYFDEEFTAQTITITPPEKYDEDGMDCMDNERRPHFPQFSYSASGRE
T5 sequence (P06239 whole entry, species assumed, the tested form may be a part): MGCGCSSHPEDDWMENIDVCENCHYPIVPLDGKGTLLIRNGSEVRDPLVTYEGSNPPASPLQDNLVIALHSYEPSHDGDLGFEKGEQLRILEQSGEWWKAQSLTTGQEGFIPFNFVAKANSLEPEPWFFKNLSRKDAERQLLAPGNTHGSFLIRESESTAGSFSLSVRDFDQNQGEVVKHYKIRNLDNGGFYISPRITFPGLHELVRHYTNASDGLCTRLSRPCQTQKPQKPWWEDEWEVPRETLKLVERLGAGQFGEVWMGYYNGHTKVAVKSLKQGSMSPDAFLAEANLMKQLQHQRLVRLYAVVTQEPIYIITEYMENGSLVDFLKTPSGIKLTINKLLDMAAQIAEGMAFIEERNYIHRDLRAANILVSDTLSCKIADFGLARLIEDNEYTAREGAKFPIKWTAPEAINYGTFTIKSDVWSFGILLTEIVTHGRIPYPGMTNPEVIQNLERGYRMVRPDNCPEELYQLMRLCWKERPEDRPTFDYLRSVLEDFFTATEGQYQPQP
T6 sequence (P00533 25-1210, species assumed): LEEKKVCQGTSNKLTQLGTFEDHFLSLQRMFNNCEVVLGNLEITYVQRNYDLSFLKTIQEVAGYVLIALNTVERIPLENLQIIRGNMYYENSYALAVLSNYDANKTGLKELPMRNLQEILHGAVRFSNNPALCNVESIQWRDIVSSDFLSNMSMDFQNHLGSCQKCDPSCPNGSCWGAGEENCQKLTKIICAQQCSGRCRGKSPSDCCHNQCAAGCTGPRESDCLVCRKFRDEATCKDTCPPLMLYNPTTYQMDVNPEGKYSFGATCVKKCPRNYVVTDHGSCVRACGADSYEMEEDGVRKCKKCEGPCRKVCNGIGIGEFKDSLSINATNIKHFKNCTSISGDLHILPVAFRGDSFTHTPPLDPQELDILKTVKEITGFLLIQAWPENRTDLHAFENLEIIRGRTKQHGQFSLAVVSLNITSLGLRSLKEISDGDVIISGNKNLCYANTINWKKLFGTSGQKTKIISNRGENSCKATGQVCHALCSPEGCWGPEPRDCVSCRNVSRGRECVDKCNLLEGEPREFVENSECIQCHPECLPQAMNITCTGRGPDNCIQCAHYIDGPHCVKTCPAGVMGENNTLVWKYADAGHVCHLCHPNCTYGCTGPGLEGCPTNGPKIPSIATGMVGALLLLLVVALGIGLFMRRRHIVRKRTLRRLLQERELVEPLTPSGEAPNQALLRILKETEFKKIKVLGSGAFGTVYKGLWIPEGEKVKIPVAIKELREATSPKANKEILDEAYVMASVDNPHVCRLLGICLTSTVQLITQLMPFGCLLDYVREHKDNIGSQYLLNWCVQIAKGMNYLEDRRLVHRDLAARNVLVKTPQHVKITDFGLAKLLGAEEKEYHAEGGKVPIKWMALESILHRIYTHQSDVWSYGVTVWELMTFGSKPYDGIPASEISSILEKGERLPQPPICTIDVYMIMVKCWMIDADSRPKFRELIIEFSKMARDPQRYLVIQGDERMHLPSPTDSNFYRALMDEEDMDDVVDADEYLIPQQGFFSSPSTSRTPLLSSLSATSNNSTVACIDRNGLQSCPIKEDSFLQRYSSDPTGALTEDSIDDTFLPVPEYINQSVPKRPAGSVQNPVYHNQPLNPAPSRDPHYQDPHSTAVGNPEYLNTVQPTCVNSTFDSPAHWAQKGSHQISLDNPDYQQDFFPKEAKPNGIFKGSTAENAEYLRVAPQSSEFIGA
T8 sequence (P09619 33-1106, species assumed): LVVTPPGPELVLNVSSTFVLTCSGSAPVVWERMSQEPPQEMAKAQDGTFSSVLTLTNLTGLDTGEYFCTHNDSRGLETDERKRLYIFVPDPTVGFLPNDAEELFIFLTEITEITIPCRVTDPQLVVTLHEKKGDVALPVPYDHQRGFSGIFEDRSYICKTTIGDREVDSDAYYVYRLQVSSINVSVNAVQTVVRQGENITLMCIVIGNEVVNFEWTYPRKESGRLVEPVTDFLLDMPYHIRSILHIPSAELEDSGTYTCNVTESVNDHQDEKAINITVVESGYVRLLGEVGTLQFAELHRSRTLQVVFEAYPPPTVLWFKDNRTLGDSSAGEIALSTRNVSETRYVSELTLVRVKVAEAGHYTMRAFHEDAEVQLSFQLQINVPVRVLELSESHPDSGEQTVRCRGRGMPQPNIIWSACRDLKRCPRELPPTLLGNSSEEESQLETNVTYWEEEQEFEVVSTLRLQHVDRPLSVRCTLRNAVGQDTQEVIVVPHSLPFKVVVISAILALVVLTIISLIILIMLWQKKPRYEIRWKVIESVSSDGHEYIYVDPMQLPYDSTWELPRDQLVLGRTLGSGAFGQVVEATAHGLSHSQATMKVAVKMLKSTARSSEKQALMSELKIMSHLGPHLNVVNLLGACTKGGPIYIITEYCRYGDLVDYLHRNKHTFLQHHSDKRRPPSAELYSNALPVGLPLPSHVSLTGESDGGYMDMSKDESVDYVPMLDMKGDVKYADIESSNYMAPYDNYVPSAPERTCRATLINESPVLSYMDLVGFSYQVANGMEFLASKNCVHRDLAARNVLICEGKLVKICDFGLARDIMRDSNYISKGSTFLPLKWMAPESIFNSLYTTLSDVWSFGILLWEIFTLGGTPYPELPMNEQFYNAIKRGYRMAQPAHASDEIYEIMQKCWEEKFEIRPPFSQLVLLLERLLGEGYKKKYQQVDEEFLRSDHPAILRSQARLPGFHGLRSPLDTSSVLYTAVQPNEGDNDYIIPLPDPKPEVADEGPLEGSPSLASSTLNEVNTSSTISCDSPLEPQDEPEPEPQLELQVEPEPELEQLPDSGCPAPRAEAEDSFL

Consider `COc1ccc(Nc2ncnc(NCCNC(C)=O)n2)cc1OC` [Compound 784], for which the IC50 in [1], in experiment [2], in [3], in experiment [4], in experiment [5] and in [6] was above 13.5 µM throughout. The IC50 in experiment [7], in [8], in experiment [9] and in [10] was above 13.5 µM in each case.
On to `COC(=O)Cc1cccc(Nc2ncnc(Nc3ccc(C)c(O)c3)n2)c1` [Compound 542], for which the IC50 in experiment [1] is 9.58 to 12.3 µM; in experiment [2] it was above 12.3 µM; in [3], 1.09 to 6.57 µM; in experiment [4], above 12.3 µM; in [5], 1.09 to 6.57 µM; in [6], 1.09 to 6.57 µM. In addition, the IC50 in experiment [7] was below 1.09 µM; in [8], 1.09 to 6.57 µM; in experiment [9], 1.09 to 6.57 µM; in experiment [10], 1.09 to 6.57 µM.
Consider `Cc1ccc2c(c1)CCCN2c1ncnc(NCc2ccccn2)n1` [Compound 769], for which the IC50 in [1], in experiment [2], in [3], in experiment [4], in experiment [5] and in experiment [6] was above 13.5 µM throughout. The IC50 in [7], in experiment [8], in experiment [9] and in experiment [10] was above 13.5 µM each time.
`CC(=O)N1CCc2cc(Nc3ncnc(N4CCCc5cc(C)ccc54)n3)ccc21` [Compound 764]: the IC50 was below 0.999 µM in [1]; above 11.2 µM in [2]; above 11.2 µM in experiment [3]; above 11.2 µM in [4]; above 11.2 µM in experiment [5]; below 0.999 µM in [6]. In addition, the IC50 was above 11.2 µM in [7], below 0.999 µM in experiment [8], above 11.2 µM in experiment [9] and above 11.2 µM in experiment [10].
In the case of `c1ccc(CNc2nc3ccccc3n2-c2ncnc(Nc3cccc(Cc4nnn[nH]4)c3)n2)nc1` [Compound 958], the IC50 fell in the range of 0.839 to 5.04 µM in experiment [1]; 5.04 to 7.35 µM in experiment [2]; 0.839 to 5.04 µM in [3]; 5.04 to 7.35 µM in experiment [4]; 0.839 to 5.04 µM in experiment [5]; 0.839 to 5.04 µM in experiment [6]. The IC50 in [7] was below 0.839 µM; in [8], 0.839 to 5.04 µM; in experiment [9], 0.839 to 5.04 µM; in experiment [10] it was 0.839 to 5.04 µM.
For `COc1cccc(Nc2ncnc(Nc3cc(-c4ccccc4)n[nH]3)n2)c1` [Compound 1011], the IC50 in experiment [1] is 1.11 to 6.68 µM; in experiment [2], above 12.5 µM; in experiment [3], 1.11 to 6.68 µM; in experiment [4] it was 1.11 to 6.68 µM; in experiment [5], 1.11 to 6.68 µM; in experiment [6], 1.11 to 6.68 µM. Further, the IC50 in experiment [7] was 1.11 to 6.68 µM; in experiment [8] it was 1.11 to 6.68 µM; in experiment [9] it was below 1.11 µM; in experiment [10], 1.11 to 6.68 µM.
Take `COc1ccc(Nc2ncnc(N(C)c3ccc(Cl)c(Cl)c3)n2)cc1OC` [Compound 758]: the IC50 in [1] is below 0.985 µM; in [2] it was above 11.1 µM; in experiment [3], above 11.1 µM; in experiment [4] it was above 11.1 µM; in [5] it was below 0.985 µM; in [6], below 0.985 µM. The IC50 in experiment [7] was 0.985 to 5.91 µM; in experiment [8], below 0.985 µM; in [9] it was 5.91 to 8.61 µM; in [10], below 0.985 µM.
As for `COC(=O)c1ccc(-c2cc(Nc3ncnc(Nc4cccc(CC(N)=O)c4)n3)[nH]n2)cc1` [Compound 577], the IC50 in experiment [1] is below 0.9 µM; in experiment [2], above 10.1 µM; in [3], 0.9 to 5.4 µM; in experiment [4] it was above 10.1 µM; in [5] it was 0.9 to 5.4 µM; in experiment [6], 7.87 to 10.1 µM. The IC50 in experiment [7] was 0.9 to 5.4 µM; in [8] it was 0.9 to 5.4 µM; in experiment [9] it was below 0.9 µM; in [10] it was 7.87 to 10.1 µM.
For the compound `COc1cc(CNc2ncnc(N(C)c3cccc(Cl)c3)n2)cc(OC)c1OC` [Compound 747], the IC50 was above 10.8 µM in experiment [1]; above 10.8 µM in [2]; above 10.8 µM in experiment [3]; above 10.8 µM in experiment [4]; above 10.8 µM in experiment [5]; 5.77 to 8.42 µM in experiment [6]. The IC50 in experiment [7], in experiment [8], in experiment [9] and in experiment [10] was above 10.8 µM in each case.
For `COc1cc(Nc2ncnc(-n3c(NC(C)(C)c4ccccc4)nc4ccccc43)n2)cc(OC)c1OC` [Compound 569], the IC50 in experiment [1] was above 8.8 µM; in experiment [2], above 8.8 µM; in experiment [3] it was above 8.8 µM; in [4] it was above 8.8 µM; in experiment [5], below 0.782 µM; in [6] it was above 8.8 µM. Further, the IC50 in [7] was below 0.782 µM; in [8] it was below 0.782 µM; in experiment [9], above 8.8 µM; in experiment [10], above 8.8 µM.
As for `C=CCNC(=O)c1ccc(-c2cc(Nc3ncnc(Nc4cc(OC)c(OC)c(OC)c4)n3)[nH]n2)cc1` [Compound 1005], the IC50 in experiment [1] is 4.78 to 6.96 µM; in experiment [2], above 8.95 µM; in [3] it was above 8.95 µM; in experiment [4], above 8.95 µM; in experiment [5], 6.96 to 8.95 µM; in experiment [6], above 8.95 µM. The IC50 in experiment [7] is above 8.95 µM; in experiment [8] it was above 8.95 µM; in [9], 0.796 to 4.78 µM; in [10], above 8.95 µM.
Turning to `COc1cc(Nc2ncnc(Nc3cc(F)cc(C(F)(F)F)c3)n2)cc(OC)c1OC` [Compound 632], the IC50 is above 10.2 µM in experiment [1]; above 10.2 µM in experiment [2]; above 10.2 µM in experiment [3]; above 10.2 µM in [4]; 0.91 to 5.46 µM in experiment [5]; below 0.91 µM in [6]. Also, the IC50 in experiment [7] was 7.97 to 10.2 µM; in [8], 0.91 to 5.46 µM; in experiment [9] it was 0.91 to 5.46 µM; in experiment [10], 0.91 to 5.46 µM.
As for `CC1CCc2ccccc2N1c1ncnc(N2c3ccccc3CCC2C)n1` (centres unmarked) [Compound 622], the IC50 in experiment [1] is above 12.1 µM; in experiment [2], above 12.1 µM; in experiment [3], above 12.1 µM; in [4] it was above 12.1 µM; in experiment [5], above 12.1 µM; in experiment [6], 6.46 to 9.42 µM. For the same compound, the IC50 in experiment [7] is above 12.1 µM; in experiment [8], 9.42 to 12.1 µM; in [9], above 12.1 µM; in [10] it was 6.46 to 9.42 µM.
Regarding `CN(c1ccccc1)c1ncnc(-n2c(N)nc3ccccc32)n1` [Compound 662], the IC50 is above 14.2 µM in experiment [1]; above 14.2 µM in [2]; above 14.2 µM in experiment [3]; above 14.2 µM in [4]; 7.56 to 11 µM in [5]; 7.56 to 11 µM in experiment [6]. Also, the IC50 in experiment [7] is 1.26 to 7.56 µM; in experiment [8], above 14.2 µM; in [9], 11 to 14.2 µM; in experiment [10], 7.56 to 11 µM.
